Patent publication US5462933A, “Modified bile acid conjugates, and their use as pharmaceuticals” (Hoechst Aktiengesellschaft, priority 1989, dated 1995)

Legend:
liver cell proteins = assay: Alkylation of liver cell proteins in freshly isolated hepatocytes; format: cell-based, rat
Procedure: Freshly isolated hepatocytes (2×10^6) in 2 ml of buffer I were incubated at 37° C. with 30 μCi of "Example 5". After 10, 30, 40 and 60 min, in each case 500 μl of cell suspension (500 μg of protein) were removed and diluted with 10 ml of ice-cold buffer I. After centrifuging at 1000×g for 3 minutes, the precipitate was resuspended in 10 ml of buffer I and the suspension was centrifuged again. The cell precipitates were each dissolved in 100 μl of 62.5 mM tris/HCl buffer (pH 6.8)/2% SDS/5% 2-mercaptoethanol/10% glycerol/0.001% Bromophenol blue, centrifuged at 48,000×g for 30 min and the clear supernatants were applied to discontinuous SDS slab gels (200×170×2.7 mm). After the electrophoretic separation, the gels were fixed and stained. To determine the distribution of the radioactivity, the individual gel tracks were divided into 2 mm sections, the proteins were digested with Biolute S by incubation with 0.5 ml, and after addition of 5 ml of Quickszint 501 scintillator, the samples were measured in a liquid scintillation counter.

[1] = test system: freshly isolated hepatocytes; assay: Metabolism by freshly isolated hepatocytes; format: in vitro ADME, rat; set-up: Distribution of the radioactivity: Metabolite 1 Rf = 0.32 / Distribution of the radioactivity: Metabolite 3 Rf = 0.21 (not identified): concentration or dose not given beside the values
Procedure: Freshly isolated hepatocytes (1.8×10^6) in 750 μl of buffer I were incubated at 37° C. with 5.5 μCi of "Example 5". After 10, 20, 30, 40 and 60 min, 100 μl of the cell suspension were removed in each case, diluted with 10 ml of ice-cold buffer I and centrifuged at 1000×g for 5 min. The cell precipitate was treated twice with 100 μl of chloroform/methanol solution (1/1, v/v) each time to extract the bile acid. The organic extracts were evaporated in a stream of N2, and the residues were each taken up in 20 μl of dioxane and applied to HPTLC thin layer plates. After developing the chromatogram using n-butanol/acetic acid/water (9:1:2, v/v/v) as the eluent, the plate was dried, sprayed with 1M sodium salicylate solution in methanol and, after drying, placed on a Kodak-X-Omat AR X-ray film. After exposure at -80° C. for 1 week, the film was developed and the distribution of the radioactivity was determined by densitometry. The distribution of the radioactivity in the individual metabolites is given in %.

[2] = In vivo perfused liver: absorption from portal vein blood and excretion into the bile; set-up: species or system rat; conditions: after W (Chlorambucil) into mesenteric vein
Procedure: In order to investigate a selective absorption of bile acid derivatives into the liver and their hepatotropic action, the appropriate derivatives were injected as a bolus into a mesenteric vein of anesthetized rats and the excretion of these derivatives and the corresponding active compounds or active compound metabolites into the bile was analysed.
Male Sprague-Dawley rats (300-500 g bodyweight) had their food withdrawn and received water ad libitum. After tracheotomy, the abdomen was opened by median section under urethane anesthesia ([…] i.m. urethane 30%). The pylorus was ligated and the bile duct was cannulated by advancing a polyethylene tube (d=0.05 mm) up to the liver and the bile was drained. The volume of secretion was measured at 15 minute intervals. After a preliminary period of 60 minutes, the substances (0.5 ml of a 1 mM solution in 0.9% NaCl solution) were administered into a mesenteric vein in the course of 30 sec and the bile was collected at prestated time intervals (2, 4, 6, 8, 10, 15, 20, 30, 40, 50, 60, 70, 80, 90, 100, 110 and 120 min). The bile acid derivative was administered first, and the appropriate active compound was administered after a collection period of 2 hours. 120 min after administration of test substance, the bladder volume was measured and the urine was also collected. The bile and urine samples were stored on ice during the experiment and then deep-frozen.
Each 10 μl bile sample was applied to TLC plates (10×20 cm, silica gel 60 specific layer thickness 0.25 mm, No. 37581 Riedel de Haen, Seelze, Federal Republic of Germany) using Microcaps (Drummond, Broomall, USA) and the thin-layer plates were dried in the air for 20 min.
The plates were developed in the following mobile phases: Substance Mobile phase
The constituents of the mobile phases were bought from the usual manufacturers in the highest possible purity grade. After developing and drying the plates, the distribution of the active compounds and the bile acid derivatives, or their metabolites, was determined by densitometry (CD 50 densitometer, DESAGA; Heidelberg). Detection was carried out in reflection mode with linear sampling at the wavelengths 252 nm (chlorambucil/chlorambucil conjugate) or 260 nm (remaining substances).
In order to evaluate the chromatograms, the relative intensity of the bile acid derivatives, the active compounds or the active compound metabolites on a chromatogram was given in surface area units.

In the case of [3H]C1(O)C[C@H]2[C@@H](CC[C@@H]3C[C@H](OC(=O)CCCc4ccc(N(CCCl)CCCl)cc4)CC[C@@]32C)[C@@H]2CC[C@H]([C@H](C)CCC(=O)NCCS(=O)(=O)O)[C@]21C (some centres unmarked) [Example 5], the “Radioactive labeling of liver cell proteins” value (liver cell proteins; in membranes, cytoplasm and cell organelles, result in words) is reported as “leads to a radioactive labeling of liver cell proteins”, the “Radioactivity in labeled liver proteins” value (liver cell proteins; incubation 0 min) is reported as under 30 cpm and the “Radioactivity in labeled liver proteins” value (liver cell proteins; incubation 10 min, 48 kDa) is reported as 408 cpm. The “Radioactivity in labeled liver proteins” value (liver cell proteins; incubation 10 min, 67 kDa) was 102 cpm, the “Radioactivity in labeled liver proteins” value (liver cell proteins; incubation 30 min, 28 kDa) was 2190 cpm and the “Radioactivity in labeled liver proteins” value (liver cell proteins; incubation 30 min, 33 kDa) was 1116 cpm. The “Radioactivity in labeled liver proteins” value (liver cell proteins; incubation 30 min, 42 kDa) was 1711 cpm, the “Radioactivity in labeled liver proteins” value (liver cell proteins; incubation 30 min, 48 kDa) was 1375 cpm and the “Radioactivity in labeled liver proteins” value (liver cell proteins; incubation 30 min, 54 kDa) was 1811 cpm. For the same compound, the “Radioactivity in labeled liver proteins” value (liver cell proteins; incubation 30 min, 122 kDa) was 1064 cpm, the “Radioactivity in labeled liver proteins” value (liver cell proteins; incubation 40 min, 28 kDa) was 2682 cpm and the “Radioactivity in labeled liver proteins” value (liver cell proteins; incubation 40 min, 33 kDa) was 1474 cpm. The “Radioactivity in labeled liver proteins” value (liver cell proteins; incubation 40 min, 42 kDa) was 2650 cpm, the “Radioactivity in labeled liver proteins” value (liver cell proteins; incubation 40 min, 48 kDa) was 2420 cpm and the “Radioactivity in labeled liver proteins” value (liver cell proteins; incubation 40 min, 54 kDa) was 2385 cpm. For the same compound, the “Radioactivity in labeled liver proteins” value (liver cell proteins; incubation 40 min, 122 kDa) was 1549 cpm, the “Radioactivity in labeled liver proteins” value (liver cell proteins; incubation 60 min, 28 kDa) was 2163 cpm and the “Radioactivity in labeled liver proteins” value (liver cell proteins; incubation 60 min, 42 kDa) was 1725 cpm. The “Radioactivity in labeled liver proteins” value (liver cell proteins; incubation 60 min, 48 kDa) was 2074 cpm, the “Radioactivity in labeled liver proteins” value (liver cell proteins; incubation 60 min, 54 kDa) was 1949 cpm and the “Radioactivity in labeled liver proteins” value (liver cell proteins; incubation 60 min, 122 kDa) was 997 cpm. For the same compound, the “Distribution of the radioactivity: "Example 5" Rf = 0.49” value (“Distribution … "Example 5" Rf = 0.49” below) ([1]; incubation 10 min) was 31.34%, the “Distribution of the radioactivity: Metabolite 1 Rf = 0.32” value (from here on “Distribution … Metabolite 1 Rf = 0.32”) ([1]; incubation 10 min) was 33.79% and the “Distribution of the radioactivity: Metabolite 2 Rf = 0.36” value (“Distribution … Metabolite 2 Rf = 0.36” below) ([1]; incubation 10 min) was 38.03%. The “Distribution of the radioactivity: Metabolite 3 Rf = 0.21 (not identified)” value (shortened to “Distribution … (not identified)”) ([1]; incubation 10 min) was 5.62%, the “Distribution … "Example 5" Rf = 0.49” value ([1]; incubation 20 min) was 26.51% and the “Distribution … Metabolite 1 Rf = 0.32” value ([1]; incubation 20 min) was 29.49%. The “Distribution … Metabolite 2 Rf = 0.36” value ([1]; incubation 20 min) was 32.25%, the “Distribution … (not identified)” value ([1]; incubation 20 min) was 11.74% and the “Distribution … "Example 5" Rf = 0.49” value ([1]; incubation 30 min) was 23.76%. The “Distribution … Metabolite 1 Rf = 0.32” value ([1]; incubation 30 min) was 29.88%, the “Distribution … Metabolite 2 Rf = 0.36” value ([1]; incubation 30 min) was 34.18% and the “Distribution … (not identified)” value ([1]; incubation 30 min) was 12.16%. For the same compound, the “Distribution … "Example 5" Rf = 0.49” value ([1]; incubation 40 min) was 13.78%, the “Distribution … Metabolite 1 Rf = 0.32” value ([1]; incubation 40 min) was 33.52% and the “Distribution … Metabolite 2 Rf = 0.36” value ([1]; incubation 40 min) was 40.93%. For the same compound, the “Distribution … (not identified)” value ([1]; incubation 40 min) was 11.75%, the “Distribution … "Example 5" Rf = 0.49” value ([1]; incubation 60 min) was 11.00% and the “Distribution … Metabolite 1 Rf = 0.32” value ([1]; incubation 60 min) was 33.7%. For the same compound, the “Distribution … Metabolite 2 Rf = 0.36” value ([1]; incubation 60 min) was 45.7%, the “Distribution … (not identified)” value ([1]; incubation 60 min) was 10.3% and the “Absorption into the cell interior by the liver cells” value ([1]; result in words) was “is absorbed into the cell interior by the liver cells”. The “Hydrolytic cleavage into free chlorambucil and bile acid” value ([1]; result in words) was “rapidly cleaved hydrolytically”.

In the case of O=C(O)CCCc1ccc(N(CCCl)CCCl)cc1 [Chlorambucil, [4-(bis-N-(2'-chloroethyl)-aminophenyl)]-butyric acid, reference compound], the “Conc. of W or a metabolite of W in bile” value ([2]; bile at 2 min) is reported as 1012 surface area units, the “Conc. of W or a metabolite of W in bile” value ([2]; bile at 4 min) is reported as 885 surface area units and the “Conc. of W or a metabolite of W in bile” value ([2]; bile at 6 min) is reported as 1044 surface area units. The “Conc. of W or a metabolite of W in bile” value ([2]; bile at 8 min) was 1160 surface area units, the “Conc. of W or a metabolite of W in bile” value ([2]; bile at 10 min) was 810 surface area units and the “Conc. of W or a metabolite of W in bile” value ([2]; bile at 15 min) was 689 surface area units. For the same compound, the “Conc. of W or a metabolite of W in bile” value ([2]; bile at 20 min) was 1481 surface area units, the “Conc. of W or a metabolite of W in bile” value ([2]; bile at 30 min) was 704 surface area units and the “Conc. of W or a metabolite of W in bile” value ([2]; bile at 40 min) was 511 surface area units. For the same compound, the “Conc. of W or a metabolite of W in bile” value ([2]; bile at 60 min) was 620 surface area units, the “Conc. of W or a metabolite of W in bile” value ([2]; bile at 70 min) was 1769 surface area units and the “Conc. of W or a metabolite of W in bile” value ([2]; bile at 80 min) was 501 surface area units. The “Conc. of W or a metabolite of W in bile” value ([2]; bile at 90 min) was 813 surface area units, the “Conc. of W or a metabolite of W in bile” value ([2]; bile at 100 min) was 523 surface area units and the “Conc. of W or a metabolite of W in bile” value ([2]; bile at 110 min) was 604 surface area units. For the same compound, the “Conc. of W or a metabolite of W in bile” value ([2]; bile at 120 min) was 531 surface area units.
